Test results published in US11541059B2, “Heterocyclic compounds and uses thereof” (Infinity Pharmaceuticals, Inc., priority 2014, dated 2023).
Like-named read-outs stand apart in the source and are kept apart here.

How the values were obtained:
PI3K α = PI3K α (Homo sapiens (Human), UniProt P42336); experiment: PI3-Kinase Promega ADP-Glo Max assay; assay type: biochemical
Description: (§4) Promega ADP-Glo Max assay kit (Cat. No. V7002) was utilized to determine IC50 values for α, β, δ and γ isoforms of human Class I PI3 kinases (Millipore). […] Reactions were incubated at room temperature for 2 hours followed by addition of 25 uL of stop solution. After a 40-minute incubation at room temperature, 50 uL of Promega detection mix was added followed by incubation for 1 hour at room temperature. Plates were then read on Envision plate reader in luminescence mode. Data was converted to % inhibition using the following equation below:
(§5) [formula] where S is the sample luminescence, Pos is a positive control without added PI3K, Neg is the negative control without added compound. Data was then plotted as % inhibition vs compound concentration.

PI3K β = PI3K β (Homo sapiens (Human), UniProt P42338); experiment: PI3-Kinase Promega ADP-Glo Max assay; assay type: biochemical
Description: as §4, §5

PI3K δ = PI3K δ (Homo sapiens (Human), UniProt O00329); experiment: PI3-Kinase Promega ADP-Glo Max assay; assay type: biochemical
Description: as §4, §5

PI3K γ = PI3K γ (Homo sapiens (Human), UniProt P48736); experiment: PI3-Kinase Promega ADP-Glo Max assay; assay type: biochemical
Description: as §4, §5

PI3K-δ in RAJI cells = PI3K-δ in RAJI cells (Homo sapiens (Human), UniProt O00329); experiment: RAJI p110 δ assay (phospho-AKT, anti-human IgM stimulated); assay type: cell-based
Description: Reduction of phospho-AKT is indicative of compounds that may inhibit B-cell proliferation and function in certain diseases.
Certain compounds provided herein were tested in RAJI cell model using procedures as described above.

[1] = biological target: PI3K-γ in RAW264.7 macrophages (Mus musculus (Mouse), UniProt Q9JHG7); experiment: Raw264.7 p110 γ assay (phospho-AKT, C5a stimulated); assay type: cell-based
From the text: Briefly, serum-starved RAW264.7 cells are stimulated with a known GPCR agonist C5a. […] Cells can be treated with test compounds prior to, simultaneously with, or subsequent to the stimulation by C5a. RAW 264.7 cells respond to the complement component fragment C5a through activation of the C5a receptor, and the C5a receptor activates macrophages and induces cell migration.

[2] = Pharmacokinetics of Compound 88, oral; assay type: in vivo, mouse; details: female C57 mice
Description: A similar study was carried out using Compound 88. […] Below is a table that details the results for Compound 88: […]

human T cells = experiment: Concanavalin A-induced model for activation of human T cells (IFN-γ); assay type: cell-based; details: isoform selective concentrations
[3] = system: LPS induced neutrophil influx in BALF; experiment: LPS-induced neutrophilia, oral administration; assay type: in vivo; details: rat, p.o., 4 hours post-LPS challenge
From the text: (§1) This study also includes assessment of the exposure to the compounds in plasma and lung tissues.

[4] = Oral PK in the rat LPS studies (free plasma concentration); assay type: in vivo; details: p.o. 0.2 mg/kg
From the text: as §1

[5] = system: CXCL12 induced p-AKT in M1 polarized macrophage; experiment: CXCL12-induced p-AKT induction assay, M1 polarized macrophages; assay type: cell-based, mouse
From the text: (§2) Long bones from young C57B6 mice were harvested and bone marrow was extruded by gentle lavage of the bone marrow cavities with a 28 guage needle. Red blood cells were removed using red blood cell lysis buffer (Sigma). Bone marrow cells were differentiated to macrophages using MCSF for 6 days (RPMI and 20% FCS) with one media change (with removal of all non-adherent cells) at day 3. Macrophages were polarized into M0 (MCSF), M1 (MCSF, IFNγ, and LPS for 1 day), or M2 (MCSF, IL4 for 2 days).
(§3) CXCL12-induced p-AKT induction assay: Polarized macrophages were lifted with Acutase, and plated at 0.5M cells per well (0.5 ml) in a deep well (2 ml) non adherant plate in polarization media for 1 hour. […] CXCL12 was added, and the cells were mixed on a plate shaker for 2 minutes. 1 ml of 37 degree FACS Lyse/fix buffer (BD bioscience) was added and the plate was mixed for 1 minute. The plates were spun and decanted and frozen at −80° C. Phospho AKT staining with anti Phospho AKT 473 PERCP labeled (Cell Signaling Technologies) was performed and measured by flow cytometry. Total cell MFI was used to calculate the effect of tested compound on CXCL12 induction of phospho AKT.

[6] = system: CXCL12 induced p-AKT in M2 polarized macrophage; experiment: CXCL12-induced p-AKT induction assay, M2 polarized macrophages; assay type: cell-based, mouse
From the text: as §2, §3

LLC tumor = LLC tumor brei model with or without cyclophosphamide; assay type: in vivo, mouse; details: BB 15 mg/kg QD PO; cyclophosphamide 50 mg/kg EOD IP, FIG. 48
Description: In this experiment, treatment began when tumors reached approx. 150 mm^3—around day 12. Caliper and xenogen images were monitored. Treatment groups n=13-15/group. […] Samples for FACs analysis were collected on day 23 post implant. Using FACS, cells were assayed for the level of CD11b and Gr-1.

Sequence of PI3K γ (P48736 whole entry): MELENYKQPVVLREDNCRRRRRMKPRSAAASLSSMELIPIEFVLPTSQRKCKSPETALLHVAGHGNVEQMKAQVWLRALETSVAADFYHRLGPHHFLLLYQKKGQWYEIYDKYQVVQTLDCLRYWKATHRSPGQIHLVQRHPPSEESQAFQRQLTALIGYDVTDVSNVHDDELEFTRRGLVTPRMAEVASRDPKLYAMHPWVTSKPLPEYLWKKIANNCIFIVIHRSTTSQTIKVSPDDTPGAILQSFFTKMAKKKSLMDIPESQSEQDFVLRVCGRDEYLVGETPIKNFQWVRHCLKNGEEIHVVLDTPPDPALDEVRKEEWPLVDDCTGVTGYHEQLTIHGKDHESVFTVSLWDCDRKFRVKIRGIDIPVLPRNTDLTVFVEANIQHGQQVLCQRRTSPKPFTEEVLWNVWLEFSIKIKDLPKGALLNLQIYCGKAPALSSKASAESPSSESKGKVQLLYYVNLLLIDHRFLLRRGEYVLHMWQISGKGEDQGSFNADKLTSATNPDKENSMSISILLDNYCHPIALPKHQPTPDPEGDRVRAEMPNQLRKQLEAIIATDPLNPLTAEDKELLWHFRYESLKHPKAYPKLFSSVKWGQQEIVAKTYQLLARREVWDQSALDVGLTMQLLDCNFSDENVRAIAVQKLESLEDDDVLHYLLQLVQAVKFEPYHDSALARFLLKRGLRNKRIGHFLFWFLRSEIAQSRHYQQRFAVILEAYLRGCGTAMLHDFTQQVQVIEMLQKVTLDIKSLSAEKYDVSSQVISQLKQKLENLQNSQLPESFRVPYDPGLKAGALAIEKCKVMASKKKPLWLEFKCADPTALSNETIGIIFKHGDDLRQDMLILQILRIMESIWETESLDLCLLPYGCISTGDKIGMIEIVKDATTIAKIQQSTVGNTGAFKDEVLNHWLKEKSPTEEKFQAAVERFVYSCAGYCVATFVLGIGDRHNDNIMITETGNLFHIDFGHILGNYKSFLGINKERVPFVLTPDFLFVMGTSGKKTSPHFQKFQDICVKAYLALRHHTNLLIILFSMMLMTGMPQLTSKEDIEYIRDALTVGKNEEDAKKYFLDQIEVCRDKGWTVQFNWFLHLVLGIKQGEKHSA
Sequence of PI3K-γ in RAW264.7 macrophages (Q9JHG7 whole entry): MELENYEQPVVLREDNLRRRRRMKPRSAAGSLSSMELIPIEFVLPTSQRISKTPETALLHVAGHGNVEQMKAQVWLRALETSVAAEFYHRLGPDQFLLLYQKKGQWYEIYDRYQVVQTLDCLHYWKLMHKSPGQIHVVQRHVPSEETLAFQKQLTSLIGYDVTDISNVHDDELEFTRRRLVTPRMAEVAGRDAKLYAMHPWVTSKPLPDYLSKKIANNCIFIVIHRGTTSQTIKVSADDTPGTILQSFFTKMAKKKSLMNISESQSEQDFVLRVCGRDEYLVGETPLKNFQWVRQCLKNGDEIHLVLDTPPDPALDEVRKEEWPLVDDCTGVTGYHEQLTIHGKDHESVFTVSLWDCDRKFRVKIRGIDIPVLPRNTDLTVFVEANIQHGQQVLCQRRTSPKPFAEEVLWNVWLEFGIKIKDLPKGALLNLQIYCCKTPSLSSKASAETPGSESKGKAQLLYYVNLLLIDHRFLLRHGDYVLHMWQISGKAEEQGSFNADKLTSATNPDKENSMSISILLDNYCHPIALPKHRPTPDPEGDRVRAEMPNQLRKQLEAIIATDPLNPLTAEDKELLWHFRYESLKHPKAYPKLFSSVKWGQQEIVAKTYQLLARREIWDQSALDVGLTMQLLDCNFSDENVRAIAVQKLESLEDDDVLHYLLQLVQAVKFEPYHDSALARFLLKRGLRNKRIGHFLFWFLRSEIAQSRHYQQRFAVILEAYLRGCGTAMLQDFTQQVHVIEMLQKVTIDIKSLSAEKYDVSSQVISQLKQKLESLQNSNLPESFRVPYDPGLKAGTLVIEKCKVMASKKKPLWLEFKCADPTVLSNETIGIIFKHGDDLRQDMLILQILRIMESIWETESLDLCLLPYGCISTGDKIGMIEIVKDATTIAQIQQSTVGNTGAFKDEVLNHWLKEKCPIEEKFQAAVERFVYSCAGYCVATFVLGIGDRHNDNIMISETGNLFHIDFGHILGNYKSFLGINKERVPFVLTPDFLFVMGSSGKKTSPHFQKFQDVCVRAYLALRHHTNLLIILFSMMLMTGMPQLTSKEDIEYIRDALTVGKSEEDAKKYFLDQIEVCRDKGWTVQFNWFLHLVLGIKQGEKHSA
Sequence of PI3K β (P42338 whole entry): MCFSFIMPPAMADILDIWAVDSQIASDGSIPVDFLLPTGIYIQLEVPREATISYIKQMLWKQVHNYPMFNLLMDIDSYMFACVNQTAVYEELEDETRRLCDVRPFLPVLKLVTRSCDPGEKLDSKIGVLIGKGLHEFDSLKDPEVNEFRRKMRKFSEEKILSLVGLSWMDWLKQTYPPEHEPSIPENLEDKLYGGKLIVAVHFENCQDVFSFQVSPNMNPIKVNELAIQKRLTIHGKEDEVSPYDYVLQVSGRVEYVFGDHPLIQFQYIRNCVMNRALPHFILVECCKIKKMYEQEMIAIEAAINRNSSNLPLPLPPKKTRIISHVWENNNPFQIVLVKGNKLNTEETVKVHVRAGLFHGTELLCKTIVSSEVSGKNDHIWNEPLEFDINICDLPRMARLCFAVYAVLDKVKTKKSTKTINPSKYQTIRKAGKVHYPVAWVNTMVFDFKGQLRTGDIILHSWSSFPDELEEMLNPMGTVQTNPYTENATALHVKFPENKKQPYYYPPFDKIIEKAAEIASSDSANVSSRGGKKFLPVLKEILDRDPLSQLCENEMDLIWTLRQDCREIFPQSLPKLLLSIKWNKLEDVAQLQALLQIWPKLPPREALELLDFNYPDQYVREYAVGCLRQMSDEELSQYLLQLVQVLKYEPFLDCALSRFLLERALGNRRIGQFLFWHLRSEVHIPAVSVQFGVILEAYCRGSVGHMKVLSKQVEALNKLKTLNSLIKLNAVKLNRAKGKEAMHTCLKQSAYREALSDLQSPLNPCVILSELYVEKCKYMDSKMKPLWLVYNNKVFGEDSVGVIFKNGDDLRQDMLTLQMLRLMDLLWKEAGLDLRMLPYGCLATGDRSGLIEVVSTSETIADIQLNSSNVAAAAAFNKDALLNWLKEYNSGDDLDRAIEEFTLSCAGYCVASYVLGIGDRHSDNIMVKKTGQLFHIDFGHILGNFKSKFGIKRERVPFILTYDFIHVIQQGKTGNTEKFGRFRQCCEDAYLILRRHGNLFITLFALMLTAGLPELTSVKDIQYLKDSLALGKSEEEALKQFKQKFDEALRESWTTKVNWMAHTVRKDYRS
Sequence of PI3K β (P27986 whole entry partner): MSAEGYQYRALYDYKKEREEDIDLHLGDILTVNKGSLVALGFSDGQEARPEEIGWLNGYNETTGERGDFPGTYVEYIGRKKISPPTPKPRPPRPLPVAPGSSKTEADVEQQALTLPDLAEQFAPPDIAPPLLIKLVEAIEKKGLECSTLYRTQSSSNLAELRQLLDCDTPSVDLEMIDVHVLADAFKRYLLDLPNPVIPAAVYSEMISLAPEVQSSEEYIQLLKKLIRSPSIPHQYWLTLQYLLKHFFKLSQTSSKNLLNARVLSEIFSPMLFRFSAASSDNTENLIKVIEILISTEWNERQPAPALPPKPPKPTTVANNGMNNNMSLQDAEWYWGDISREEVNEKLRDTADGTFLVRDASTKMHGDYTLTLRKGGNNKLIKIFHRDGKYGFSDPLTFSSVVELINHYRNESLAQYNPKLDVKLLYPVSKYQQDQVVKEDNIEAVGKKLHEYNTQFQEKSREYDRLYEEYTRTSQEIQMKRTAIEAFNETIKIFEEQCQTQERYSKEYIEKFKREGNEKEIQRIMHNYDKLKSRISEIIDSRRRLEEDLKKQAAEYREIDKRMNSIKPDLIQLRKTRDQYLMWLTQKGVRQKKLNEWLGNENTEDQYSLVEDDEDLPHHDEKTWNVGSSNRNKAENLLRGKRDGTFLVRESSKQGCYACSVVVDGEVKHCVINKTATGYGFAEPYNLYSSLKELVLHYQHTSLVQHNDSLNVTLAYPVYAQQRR
Sequence of PI3K α (P42336 whole entry): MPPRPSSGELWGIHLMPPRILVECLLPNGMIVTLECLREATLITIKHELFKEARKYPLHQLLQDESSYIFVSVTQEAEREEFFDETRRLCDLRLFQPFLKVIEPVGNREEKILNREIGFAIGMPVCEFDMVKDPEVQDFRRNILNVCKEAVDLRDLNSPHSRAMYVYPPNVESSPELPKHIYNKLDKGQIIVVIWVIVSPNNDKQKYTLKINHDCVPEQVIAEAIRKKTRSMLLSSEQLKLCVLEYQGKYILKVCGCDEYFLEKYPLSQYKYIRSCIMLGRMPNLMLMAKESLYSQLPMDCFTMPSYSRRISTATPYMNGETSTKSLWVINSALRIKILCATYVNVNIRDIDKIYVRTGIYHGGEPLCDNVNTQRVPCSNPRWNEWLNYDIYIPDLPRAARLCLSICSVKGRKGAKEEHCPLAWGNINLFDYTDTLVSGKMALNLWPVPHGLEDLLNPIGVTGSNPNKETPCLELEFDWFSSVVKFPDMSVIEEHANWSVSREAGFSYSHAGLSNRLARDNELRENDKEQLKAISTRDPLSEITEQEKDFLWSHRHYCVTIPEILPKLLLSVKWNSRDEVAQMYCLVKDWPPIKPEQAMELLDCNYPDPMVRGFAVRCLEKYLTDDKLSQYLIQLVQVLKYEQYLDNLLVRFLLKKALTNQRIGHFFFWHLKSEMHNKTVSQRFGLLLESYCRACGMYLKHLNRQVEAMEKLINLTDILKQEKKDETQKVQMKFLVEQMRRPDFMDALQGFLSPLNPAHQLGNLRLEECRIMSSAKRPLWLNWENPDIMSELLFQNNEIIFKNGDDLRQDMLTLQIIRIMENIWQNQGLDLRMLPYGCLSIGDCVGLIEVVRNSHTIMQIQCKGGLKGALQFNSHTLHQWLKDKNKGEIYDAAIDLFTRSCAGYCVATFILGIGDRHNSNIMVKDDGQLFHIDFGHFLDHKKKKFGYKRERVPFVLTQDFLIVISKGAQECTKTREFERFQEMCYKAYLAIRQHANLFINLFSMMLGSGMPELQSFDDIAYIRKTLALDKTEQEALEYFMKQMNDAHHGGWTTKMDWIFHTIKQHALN
Sequence of PI3K α (P27986 whole entry partner): as the sequence (P27986 whole entry partner) above

C[C@H](NC(=O)c1c(N)nn2cccnc12)c1nc2cccc(C#CC(C)(C)C)c2c(=O)n1-c1ccccc1 [Compound 3]
IC50 (PI3K α): 5 to 10 µM | IC50 (PI3K β): 5 to 10 µM | IC50 (PI3K δ): 5 to 10 µM | IC50 (PI3K γ): 1 to 5 µM | PI3K δ/PI3K γ IC50 (selectivity) (PI3K γ; ratio of biochemical IC50s): W (W = > 1 to <10) | IC50 (PI3K-δ in RAJI cells): 1 to 10 µM | RAJI δ/Raw264.7 γ IC50 (selectivity) [1]: X (key: V = 0.1 to 1; W = > 1 to <10; X = 10 to <50; Y = 50 to <850) | IC50 ([1]; phospho-AKT): 0.05 to 0.1 µM

C[C@H](NC(=O)c1c(N)nn2cccnc12)c1cc2cccc(C#CC3CC3)c2c(=O)n1-c1ccccc1 [Compound 9]
PI3K δ/PI3K γ IC50 (selectivity) (PI3K γ): X (key: V = 0.1 to 1; W = > 1 to <10; X = 10 to <50; Y = 50 to <850) | RAJI δ/Raw264.7 γ IC50 (selectivity) [1]: Y (key: V = 0.1 to 1; W = > 1 to <10; X = 10 to <50; Y = 50 to <850)

Cc1cnc(C(=O)N[C@@H](C)c2cc3cccc(C#Cc4cnn(C)c4)c3c(=O)n2-c2ccccc2)c(N)n1 [Compound 68]
PI3K δ/PI3K γ IC50 (selectivity) (PI3K γ; ratio of biochemical IC50s): W (W = > 1 to <10) | RAJI δ/Raw264.7 γ IC50 (selectivity) ([1]; ratio of cellular IC50s): W (W = > 1 to <10)

C/C=C/c1cccc2cc([C@H](C)NC(=O)c3c(N)nn4cccnc34)n(-c3ccccc3)c(=O)c12 [Compound 70]
PI3K δ/PI3K γ IC50 (selectivity) (PI3K γ): X (key: V = 0.1 to 1; W = > 1 to <10; X = 10 to <50; Y = 50 to <850) | RAJI δ/Raw264.7 γ IC50 (selectivity) [1]: X (key: V = 0.1 to 1; W = > 1 to <10; X = 10 to <50; Y = 50 to <850)

Cc1c(C#Cc2cccc3nc([C@H](C)NC(=O)c4c(N)nn5cccnc45)n(-c4ccccc4)c(=O)c23)cnn1C [Compound 88, (S)-2-amino-N-(1-(5-((1,5-dimethyl-1H-pyrazol-4-yl)ethynyl)-4-oxo-3-phenyl-3,4-dihydroquinazolin-2-yl)ethyl)pyrazolo[1,5-a]pyrimidine-3-carboxamide]
Stability in serum [2]: good stability in serum

CC(C)n1c([C@H](C)Nc2ncnc(N)c2C#N)cc2cccc(-c3ccc(=O)n(C)c3)c2c1=O [Compound AA]
effect on IFN-γ (human T cells): highly selective inhibitor | Neutrophil in bronchoalveolar lavage fluid (BALF) [3]: reduced neutrophil | Free Plasma Conc (nM) […] ([4]; approximately 4 hours post LPS challenge): BLQ | Free Plasma Conc (nM) 1.5 h ([4]; at time of LPS challenge): BLQ | Inhibition of CXCL12-induced p-AKT [5]: did not significantly inhibit | Inhibition of CXCL12-induced p-AKT [6]: did not significantly inhibit

O=P1(N(CCCl)CCCl)NCCCO1 (stereo not shown) [cyclophosphamide, reference compound]
Tumor growth, LLC tumor brei model (LLC tumor): reduced tumor growth by about the same amount
